Data taken from patent publication US10450311B2, “Pesticidally active heterocyclic derivatives with sulphur containing substituents” (Syngenta Participations AG, priority 2014, dated 2019).

Experiments:
Type in all cases: in vivo
[1] = test system: Bemisia tabaci (Cotton White Fly); assay: Activity against Bemisia tabaci, sprayed cotton leaf discs; settings: foliar, 144 h, application rate of 200 ppm, adult white flies on cotton leaf discs, 6 days after incubation
Description: Example B1: Activity Against Bemisia tabaci (Cotton White Fly)
Cotton leaf discs were placed on agar in 24-well microtiter plates and sprayed with aqueous test solutions prepared from 10′000 ppm DMSO stock solutions. After drying the leaf discs were infested with adult white flies. The samples were checked for mortality 6 days after incubation. […] A35, A36 and A47. A1. A2, A3, A8, A10, A14 and A12.

[2] = test system: Aedes aegypti (Yellow Fever Mosquito); assay: whole plant or invertebrate; settings: 48 h, test rate of 5 ppm, L2 larvae in 96-well plates, incubation period of 2 days, read-out: effect in at least one of the two categories (mortality or growth inhibition)
Description: Example B14: Activity Against Aedes aegypti (Yellow Fever Mosquito)
10 to 15 Aedes larvae (L2) together with a nutrition mixture were placed in 96-well microtiter plates. Test compounds were pipetted into the wells. After an incubation period of 2 days insects were assessed for mortality and growth inhibition.

[3] = test system: Spodoptera littoralis (Egyptian Cotton Leaf Worm); assay: Activity against Spodoptera littoralis, sprayed cotton leaf discs; settings: foliar, 72 h, application rate of 200 ppm, L1 larvae on cotton leaf discs, 3 days after infestation, read-out: control (at least one of mortality, anti-feedant effect, growth inhibition)
Description: Example B9: Activity Against Spodoptera littoralis (Egyptian Cotton Leaf Worm)
Cotton leaf discs were placed on agar in 24-well microtiter plates and sprayed with aqueous test solutions prepared from 10′000 ppm DMSO stock solutions. After drying the leaf discs were infested with five L1 larvae. The samples were assessed for mortality, anti-feedant effect, and growth inhibition in comparison to untreated samples 3 days after infestation. Control of Spodoptera littoralis by a test sample is when at least one of mortality, anti-feedant effect, and growth inhibition is higher than the untreated sample.

[4] = test system: Myzus persicae (Green Peach Aphid); assay: Activity against Myzus persicae, sprayed sunflower leaf discs; settings: foliar, 144 h, application rate of 200 ppm, aphid population of mixed ages on sunflower leaf discs, 6 days after infestation
Description: Example B5: Activity Against Myzus persicae (Green Peach Aphid)
Sunflower leaf discs were placed on agar in a 24-well microtiter plate and sprayed with aqueous test solutions prepared from 10′000 ppm DMSO stock solutions. After drying, the leaf discs were infested with an aphid population of mixed ages. The samples were assessed for mortality 6 days after infestation.

[5] = test system: Plutella xylostella (Diamond Back Moth); assay: Activity against Plutella xylostella, treated artificial diet; settings: 120 h, application rate of 200 ppm, L2 larvae on artificial diet, 5 days after infestation, read-out: effect in at least one of the two categories (mortality or growth inhibition)
Description: Example B8: Activity Against Plutella xylostella (Diamond Back Moth)
24-well microtiter plates with artificial diet were treated with aqueous test solutions prepared from 10′000 ppm DMSO stock solutions by pipetting. After drying, the plates were infested with L2 larvae (10 to 15 per well). The samples were assessed for mortality and growth inhibition in comparison to untreated samples 5 days after infestation.

[6] = test system: Diabrotica balteata (Corn Root Worm); assay: Activity against Diabrotica balteata, sprayed maize sprouts; settings: 96 h, application rate of 200 ppm, larvae on maize sprouts, 4 days after infestation
Description: Example B2: Activity Against Diabrotica balteata (Corn Root Worm)
Maize sprouts, placed on an agar layer in 24-well microtiter plates were treated with aqueous test solutions prepared from 10′000 ppm DMSO stock solutions by spraying. After drying, the plates were infested with […] (6 to 10 per well). The samples were assessed for mortality 4 days after infestation.

[7] = test system: Euschistus heros (Neotropical Brown Stink Bug); assay: Activity against Euschistus heros, sprayed soybean leaf; settings: 120 h, application rate of 200 ppm, N-2 nymphs on soybean leaf, 5 days after infestation
Description: Example B3: Activity Against Euschistus heros (Neotropical Brown Stink Bug)
Soybean leaf on agar in 24-well microtiter plates were sprayed with aqueous test solutions prepared from 10′000 ppm DMSO stock solutions. After drying the leaf were infested with N-2 nymphs. The samples were assessed for mortality 5 days after infestation.

[8] = test system: Myzus persicae (Green Peach Aphid); assay: Activity against Myzus persicae, sucrose solution under Parafilm; settings: 120 h, test rate of 12 ppm, mixed with sucrose solution, 5 days after infestation
Source text: Example B7: Activity Against Myzus persicae (Green Peach Aphid)
Test compounds from 10′000 ppm DMSO stock solutions were applied by pipette into 24-well microtiter plates and mixed with sucrose solution. The plates were closed with a stretched Parafilm. A plastic stencil with 24 holes was placed onto the plate and infested pea seedlings were placed directly on the Parafilm. The infested plate was closed with a gel blotting paper and another plastic stencil and then turned upside down. The samples were assessed for mortality 5 days after infestation. […] A30 and A32.

[9] = test system: Frankliniella occidentalis (Western Flower Thrips); assay: Activity against Frankliniella occidentalis, sprayed sunflower leaf discs; settings: foliar, 168 h, application rate of 200 ppm, population of mixed ages on sunflower leaf discs, 7 days after infestation
Description: Example B4: Activity Against Frankliniella occidentalis (Western Flower Thrips)
Sunflower leaf discs were placed on agar in 24-well microtiter plates and sprayed with aqueous test solutions prepared from […] stock solutions. After drying the leaf discs were infested with a Frankliniella population of mixed ages. The samples were assessed for mortality 7 days after infestation.

[10] = test system: Spodoptera littoralis (Egyptian Cotton Leaf Worm); assay: Activity against Spodoptera littoralis, systemic activity; settings: 144 h, test rate of 12.5 ppm, in agar, lettuce root uptake, 6 days after infestation
Source text: Example B11: Activity Against Spodoptera littoralis (Egyptian Cotton Leaf Worm), Systemic Activity
(§1) Test compounds were applied by pipette from 10′000 ppm DMSO stock solutions into 24-well plates and mixed with agar. Lettuce seeds were placed on the agar and the multi well plate was closed by another plate which contains also agar. After 7 days the roots have absorbed the compound and the lettuce has grown into the lid plate. The lettuce leafs were now cut off into the lid plate. Spodoptera eggs were pipetted through a plastic stencil on a humid gel blotting paper and the plate closed with it. The samples were assessed for mortality 6 days after infestation.

[11] = test system: Myzus persicae (Green Peach Aphid); assay: Activity against Myzus persicae, roots of infested pea seedlings in test solution; settings: 144 h, test rate of 24 ppm, 6 days
Description: Example B6: Activity Against Myzus persicae (Green Peach Aphid)
Roots of pea seedlings infested with an aphid population of mixed ages were placed directly in the aqueous test solutions prepared from 10′000 DMSO stock solutions. The samples were assessed for mortality 6 days after placing seedlings in test solutions.

[12] = test system: Spodoptera littoralis (Egyptian Cotton Leaf Worm); assay: Activity against Spodoptera littoralis, compound in agar taken up by lettuce; settings: 144 h, test rate of 12.5 ppm, lettuce root uptake, 6 days after infestation, read-out: effect in at least one of the three categories (mortality, anti-feedancy, or growth inhibition)
Source text: Example B10: Activity Against Spodoptera littoralis (Egyptian Cotton Leaf Worm)
as §1, with “mortality, anti-feedant effect and growth inhibition in comparison to untreated samples” for “mortality”

CCn1c(C(F)(F)F)cc2nc(-c3ncc(C(F)(F)F)cc3S(=O)(=O)CC)n(C)c2c1=O [Compound A2]
≥ 80%: mortality at 200 ppm [1] | percent effect (mortality or growth inhibition) at 5 ppm [2] | percent control (mortality, anti-feedant effect or growth inhibition) at 200 ppm [3] | mortality at 200 ppm [4] | percent effect (mortality or growth inhibition) at 200 ppm [5] | mortality at 200 ppm [6] | mortality at 200 ppm [7]

C=CCn1c(C(F)(F)F)cc2nc(-c3ncc(C(F)(F)F)cc3S(=O)(=O)CC)n(C)c2c1=O [Compound A3, 5-allyl-2-[3-ethylsulfonyl-5-(trifluoromethyl)-2-pyridyl]-3-methyl-6-(trifluoromethyl)imidazo[4,5-c]pyridin-4-one]
≥ 80%: mortality at 200 ppm [1] | percent control (mortality, anti-feedant effect or growth inhibition) at 200 ppm [3] | percent effect (mortality or growth inhibition) at 200 ppm [5] | mortality at 200 ppm [6] | mortality at 200 ppm [7]

CCS(=O)(=O)c1cc(C(F)(F)F)cnc1-c1nc2cc(C(F)(F)F)n(Cc3ccccc3)c(=O)c2n1C [Compound A4, 5-benzyl-2-[3-ethylsulfonyl-5-(trifluoromethyl)-2-pyridyl]-3-methyl-6-(trifluoromethyl)imidazo[4,5-c]pyridin-4-one]
≥ 80%: mortality at 12 ppm [8] | percent control (mortality, anti-feedant effect or growth inhibition) at 200 ppm [3] | percent effect (mortality or growth inhibition) at 200 ppm [5] | mortality at 200 ppm [6]

CCS(=O)(=O)c1cc(C2CC2)cnc1-c1nc2cc(C(F)(F)F)n(C)c(=O)c2n1C [Compound A23]
≥ 80%: percent effect (mortality or growth inhibition) at 5 ppm [2] | mortality at 200 ppm [9] | percent control (mortality, anti-feedant effect or growth inhibition) at 200 ppm [3] | mortality at 200 ppm [4] | mortality at 12.5 ppm [10] | percent effect (mortality or growth inhibition) at 200 ppm [5] | mortality at 200 ppm [6] | mortality at 24 ppm [11] | mortality at 200 ppm [7]

CCn1c(C(F)(F)F)cc2nc(-c3ncc(Br)cc3S(=O)(=O)CC)n(C)c2c1=O [Compound A31, 2-(5-bromo-3-ethylsulfonyl-2-pyridyl)-5-ethyl-3-methyl-6-(trifluoromethyl)imidazo[4,5-c]pyridin-4-one]
≥ 80%: mortality at 200 ppm [1] | percent effect (mortality or growth inhibition) at 5 ppm [2] | percent control (mortality, anti-feedancy or growth inhibition) at 12.5 ppm [12] | percent control (mortality, anti-feedant effect or growth inhibition) at 200 ppm [3] | mortality at 200 ppm [4] | mortality at 12.5 ppm [10] | percent effect (mortality or growth inhibition) at 200 ppm [5] | mortality at 200 ppm [6] | mortality at 200 ppm [7]

CCn1c(C(F)(F)F)cc2nc(-c3ncc(-c4ccc(C(F)(F)F)cc4)cc3S(=O)(=O)CC)n(C)c2c1=O [Compound A35, 5-ethyl-2-[3-ethylsulfonyl-5-[4-(trifluoromethyl)phenyl]-2-pyridyl]-3-methyl-6-(trifluoromethyl)imidazo[4,5-c]pyridin-4-one]
≥ 80%: mortality at 200 ppm [1] | percent control (mortality, anti-feedant effect or growth inhibition) at 200 ppm [3] | mortality at 200 ppm [4] | mortality at 12.5 ppm [10] | percent effect (mortality or growth inhibition) at 200 ppm [5] | mortality at 200 ppm [6] | mortality at 200 ppm [7]

CCS(=O)(=O)c1cc(C(F)(F)F)ccc1-c1nc2cc(C(F)(F)F)n(C)c(=O)c2n1C [Compound A73, 2-[2-ethylsulfonyl-4-(trifluoromethyl)phenyl]-3,5-dimethyl-6-(trifluoromethyl)imidazo[4,5-c]pyridin-4-one]
≥ 80%: percent effect (mortality or growth inhibition) at 5 ppm [2] | percent control (mortality, anti-feedancy or growth inhibition) at 12.5 ppm [12] | percent control (mortality, anti-feedant effect or growth inhibition) at 200 ppm [3] | mortality at 200 ppm [4] | mortality at 12.5 ppm [10] | percent effect (mortality or growth inhibition) at 200 ppm [5] | mortality at 200 ppm [6] | mortality at 24 ppm [11] | mortality at 200 ppm [7]

CCSc1cc(C(F)(F)F)cnc1-c1nc2cc(C(F)(F)F)c(=O)n(C)c2n1C [Compound B1, 2-[3-ethylsulfanyl-5-(trifluoromethyl)-2-pyridyl]-3,4-dimethyl-6-(trifluoromethyl)imidazo[4,5-b]pyridin-5-one]
≥ 80%: mortality at 12 ppm [8] | mortality at 200 ppm [4]

CCS(=O)(=O)c1cc(C(F)(F)F)cnc1-c1nc2cc(C(F)(F)F)c(=O)n(C)c2n1C [Compound B2, 2-[3-ethylsulfonyl-5-(trifluoromethyl)-2-pyridyl]-3,4-dimethyl-6-(trifluoromethyl)imidazo[4,5-b]pyridin-5-one]
≥ 80%: mortality at 200 ppm [1] | mortality at 12 ppm [8] | mortality at 200 ppm [4] | mortality at 200 ppm [6] | mortality at 24 ppm [11] | mortality at 200 ppm [7]
